US10207003B2, “Liquid pentablock co-polymer formulations for sustained delivery of therapeutics” (i-novion, Inc., priority 2016, dated 2019)

Experiments:
[1] = Dissolving hydrophobic active agents in PTSsol as clear aqueous liquids; type: physicochemical
Procedure: (§1) Hydrophobic active agents that are difficult to formulate in aqueous compositions are typically formulated as emulsions or suspensions. […] Similarly, PTSsol for 0.5% celecoxib was prepared in 10% PTS121GH in PBS buffer at pH 7.4. […] Referring to FIGS. 2 and 3 the stability of 2.5% brinzolamide in 25% 1-0 GH polymer dispersion in PBS at pH 7.4 was analyzed over 8 weeks, using HPLC.

[2] = Visual clarity of PTSsol formulations on storage; type: physicochemical; conditions: for Time formulation remained clear and stable: PTSsol, stored at room temperature or refrigerated at 4° C., 1% cyclosporine, up to 2.5% brinzolamide; for Time formulation remained visibly clear without drug precipitating out: stored refrigerated, exemplary PTSsol, 1% and 2.5% brinzolamide, 1% cyclosporine A, 0.07% and 0.1% difluprednate
Procedure: as §1
In this example, an artificial tear composition using PTSsol polymers was generated. PTS solutions are clear, bioadhesive, biocompatible, and biodegradable polymers ideal for sensitive medical applications, such as preparing artificial tears for relieving eye discomfort caused by dry eye. […] Additional excipients can be added to the formulation as desired.

| Drug concentration dissolved as clear liquid ([1]; in 10% PTS1-0GH PTSsol) | Drug concentration dissolved as very clear liquid ([1]; in 10% of 121GH polymer) [%] | Time formulation remained clear and stable [2] [weeks] | Time formulation remained clear and stable ([2]; listed as BRZ) [weeks] | Time formulation remained visibly clear without drug precipitating out [2] [days] | Dissolution in hydrophilic polymer ([1]; directly in PTS121 GH polymer) | Drug concentration of stable aqueous formulation ([1]; first dissolved in gelling polymer 113 GH or 122 GH, then mixed with PTS121 GH) [%] | Compound |
| --- | --- | --- | --- | --- | --- | --- | --- |
| up to 2.5% | 2.5 | 8 | ≥ 8 | 28 | – | – | CCN[C@H]1CN(CCCOC)S(=O)(=O)c2sc(S(N)(=O)=O)cc21 [brinzolamide] |
| – | – | – | – | 8 | does not readily dissolve | ≤ 0.1 | CCCC(=O)O[C@]1(C(=O)COC(C)=O)CC[C@H]2[C@@H]3C[C@H](F)C4=CC(=O)C=C[C@]4(C)[C@@]3(F)[C@@H](O)C[C@@]21C [difluprednate] |
